Laboratory results reported in PubChem BioAssay AID1259407 (Chemical Carcinogenesis Research Information System (CCRIS), 2018).
Activity calls are given as the source filed them. How the calls were made is not given here.

Tested on: CCRIS mutagenicity, Ames/micronucleus/aberration tests
Test: CCRIS mutagenicity studies
[1] = Test System: AMES SALMONELLA TYPHIMURIUM, Strain/Indicator: TA98, Metabolic Activation: NONE, Method: PREINCUBATION
[2] = Test System: AMES SALMONELLA TYPHIMURIUM, Strain/Indicator: TA98, Metabolic Activation: NONE, Method: STANDARD PLATE
[3] = Test System: AMES SALMONELLA TYPHIMURIUM, Strain/Indicator: TA98, Metabolic Activation: RAT, LIVER, S-9, AROCLOR 1254, Method: STANDARD PLATE
[4] = Test System: AMES SALMONELLA TYPHIMURIUM, Strain/Indicator: TA100, Metabolic Activation: NONE, Method: PREINCUBATION
[5] = Test System: AMES SALMONELLA TYPHIMURIUM, Strain/Indicator: TA100, Metabolic Activation: NONE, Method: STANDARD PLATE
[6] = Test System: AMES SALMONELLA TYPHIMURIUM, Strain/Indicator: TA100, Metabolic Activation: RAT, LIVER, S-9, AROCLOR 1254, Method: STANDARD PLATE
[7] = Test System: AMES SALMONELLA TYPHIMURIUM, Strain/Indicator: TA1535, Metabolic Activation: HAMSTER, LIVER, S-9, AROCLOR 1254, Method: STANDARD PLATE
[8] = Test System: AMES SALMONELLA TYPHIMURIUM, Strain/Indicator: TA1535, Metabolic Activation: NONE, Method: PREINCUBATION
[9] = Test System: AMES SALMONELLA TYPHIMURIUM, Strain/Indicator: TA1535, Metabolic Activation: NONE, Method: STANDARD PLATE
[10] = Test System: AMES SALMONELLA TYPHIMURIUM, Strain/Indicator: TA1535, Metabolic Activation: RAT, LIVER, S-9, AROCLOR 1254, Method: STANDARD PLATE
[11] = Test System: AMES SALMONELLA TYPHIMURIUM, Strain/Indicator: TA1537, Metabolic Activation: HAMSTER, LIVER, S-9, AROCLOR 1254, Method: STANDARD PLATE
[12] = Test System: AMES SALMONELLA TYPHIMURIUM, Strain/Indicator: TA1537, Metabolic Activation: NONE, Method: PREINCUBATION
[13] = Test System: AMES SALMONELLA TYPHIMURIUM, Strain/Indicator: TA1537, Metabolic Activation: NONE, Method: STANDARD PLATE
[14] = Test System: AMES SALMONELLA TYPHIMURIUM, Strain/Indicator: TA1537, Metabolic Activation: RAT, LIVER, S-9, AROCLOR 1254, Method: STANDARD PLATE
[15] = Test System: AMES SALMONELLA TYPHIMURIUM, Strain/Indicator: TA1538, Metabolic Activation: HAMSTER, LIVER, S-9, AROCLOR 1254, Method: STANDARD PLATE
[16] = Test System: AMES SALMONELLA TYPHIMURIUM, Strain/Indicator: TA1538, Metabolic Activation: NONE, Method: STANDARD PLATE
[17] = Test System: AMES SALMONELLA TYPHIMURIUM, Strain/Indicator: TA1538, Metabolic Activation: RAT, LIVER, S-9, AROCLOR 1254, Method: STANDARD PLATE

| Structure (SMILES) | mutagenic call [1] | mutagenic call [2] | mutagenic call [3] | mutagenic call [4] | mutagenic call [5] | mutagenic call [6] | mutagenic call [7] | mutagenic call [8] | mutagenic call [9] | mutagenic call [10] | mutagenic call [11] | mutagenic call [12] | mutagenic call [13] | mutagenic call [14] | mutagenic call [15] | mutagenic call [16] | mutagenic call [17] | also measured |
| --- | --- | --- | --- | --- | --- | --- | --- | --- | --- | --- | --- | --- | --- | --- | --- | --- | --- | --- |
| CCOC(=O)CBr | inactive; negative | inactive; negative | inactive; negative | inactive; negative | inactive; negative | inactive; negative | inactive; negative | inactive; negative | inactive; negative | inactive; negative | inactive; negative | inactive; negative | inactive; negative | inactive; negative | inactive; negative | inactive; negative | inactive; negative | mutagenic call (End Point: IN VITRO CHROMOSOMAL ABERRATIONS, Test System: CHL CELLS, Metabolic Activation: RAT, LIVER, S-9, SODIUM PHENOBARBITAL AND 5,6-BENZOFLAVONE): inactive; negative; authors report equivocal results for structural changes at highest dos; mutagenic call (Test System: AMES SALMONELLA TYPHIMURIUM, Strain/Indicator: TA98, Metabolic Activation: RAT LIVER S-9, PHENOBARBITAL AND BETA-NAPHTHOFLAVONE, Method: PREINCUBATION): inactive; negative; mutagenic call (Test System: AMES SALMONELLA TYPHIMURIUM, Strain/Indicator: TA100, Metabolic Activation: RAT LIVER S-9, PHENOBARBITAL AND BETA-NAPHTHOFLAVONE, Method: PREINCUBATION): inactive; negative; mutagenic call (Test System: AMES SALMONELLA TYPHIMURIUM, Strain/Indicator: TA102, Metabolic Activation: NONE, Method: PREINCUBATION): inactive; negative; mutagenic call (Test System: AMES SALMONELLA TYPHIMURIUM, Strain/Indicator: TA102, Metabolic Activation: RAT LIVER S-9, PHENOBARBITAL AND BETA-NAPHTHOFLAVONE, Method: PREINCUBATION): inactive; negative; mutagenic call (Test System: AMES SALMONELLA TYPHIMURIUM, Strain/Indicator: TA104, Metabolic Activation: NONE, Method: PREINCUBATION): inactive; negative; mutagenic call (Test System: AMES SALMONELLA TYPHIMURIUM, Strain/Indicator: TA104, Metabolic Activation: RAT LIVER S-9, PHENOBARBITAL AND BETA-NAPHTHOFLAVONE, Method: PREINCUBATION): active; positive; mutagenic call (Test System: AMES SALMONELLA TYPHIMURIUM, Strain/Indicator: TA1535, Metabolic Activation: RAT LIVER S-9, PHENOBARBITAL AND BETA-NAPHTHOFLAVONE, Method: PREINCUBATION): inactive; negative; mutagenic call (Test System: AMES SALMONELLA TYPHIMURIUM, Strain/Indicator: TA1537, Metabolic Activation: RAT LIVER S-9, PHENOBARBITAL AND BETA-NAPHTHOFLAVONE, Method: PREINCUBATION): inactive; negative; mutagenic call (Test System: E.COLI, Strain/Indicator: WP2UVRA/PKM101, Metabolic Activation: NONE, Method: PREINCUBATION): inactive; negative; mutagenic call (Test System: E.COLI, Strain/Indicator: WP2UVRA/PKM101, Metabolic Activation: RAT LIVER S-9, PHENOBARBITAL AND BETA-NAPHTHOFLAVONE, Method: PREINCUBATION): active; positive; mutagenic call (Test System: E.COLI, Strain/Indicator: WP2UVRA, Metabolic Activation: NONE, Method: PREINCUBATION): inactive; negative; mutagenic call (Test System: E.COLI, Strain/Indicator: WP2UVRA, Metabolic Activation: RAT LIVER S-9, PHENOBARBITAL AND BETA-NAPHTHOFLAVONE, Method: PREINCUBATION): inactive; negative; mutagenic call (Test System: MOUSE LYMPHOMA, Strain/Indicator: L5178Y (TK+/TK-), Metabolic Activation: NONE, Method: SUSPENSION/PLATE): active; positive. reevaluation of results: inconclusive; mutagenic call (Test System: MOUSE LYMPHOMA, Strain/Indicator: L5178Y (TK+/TK-), Metabolic Activation: RAT, LIVER, S-9, AROCLOR 1254, Method: SUSPENSION/PLATE): active; positive. reevaluation of results: inconclusive |
| CC(O)CN(CC(C)O)CC(C)O (configuration not stated) | inactive; negative | – | – | inactive; negative | – | – | – | inactive; negative | – | – | – | inactive; negative | – | – | – | – | – | mutagenic call (Test System: AMES SALMONELLA TYPHIMURIUM, Strain/Indicator: TA98, Metabolic Activation: HAMSTER, LIVER, S-9, AROCLOR 1254 (10%), Method: PREINCUBATION): inactive; negative; mutagenic call (Test System: AMES SALMONELLA TYPHIMURIUM, Strain/Indicator: TA98, Metabolic Activation: RAT, LIVER, S-9, AROCLOR 1254 (10%), Method: PREINCUBATION): inactive; negative; mutagenic call (Test System: AMES SALMONELLA TYPHIMURIUM, Strain/Indicator: TA100, Metabolic Activation: HAMSTER, LIVER, S-9, AROCLOR 1254 (10%), Method: PREINCUBATION): inactive; negative; mutagenic call (Test System: AMES SALMONELLA TYPHIMURIUM, Strain/Indicator: TA100, Metabolic Activation: RAT, LIVER, S-9, AROCLOR 1254 (10%), Method: PREINCUBATION): inactive; negative; mutagenic call (Test System: AMES SALMONELLA TYPHIMURIUM, Strain/Indicator: TA1535, Metabolic Activation: HAMSTER, LIVER, S-9, AROCLOR 1254 (10%), Method: PREINCUBATION): inactive; negative; mutagenic call (Test System: AMES SALMONELLA TYPHIMURIUM, Strain/Indicator: TA1535, Metabolic Activation: RAT, LIVER, S-9, AROCLOR 1254 (10%), Method: PREINCUBATION): inactive; negative; mutagenic call (Test System: AMES SALMONELLA TYPHIMURIUM, Strain/Indicator: TA1537, Metabolic Activation: HAMSTER, LIVER, S-9, AROCLOR 1254 (10%), Method: PREINCUBATION): inactive; negative; mutagenic call (Test System: AMES SALMONELLA TYPHIMURIUM, Strain/Indicator: TA1537, Metabolic Activation: RAT, LIVER, S-9, AROCLOR 1254 (10%), Method: PREINCUBATION): inactive; negative |
| C=C1C[C@@]23CC[C@H]4[C@@](C)(CCC[C@@]4(C)C(=O)O)[C@@H]2CC[C@]1(O[C@@H]1O[C@H](CO)[C@@H](O)[C@H](O[C@@H]2O[C@H](CO)[C@@H](O)[C@H](O)[C@H]2O)[C@H]1O[C@@H]1O[C@H](CO)[C@@H](O)[C@H](O)[C@H]1O)C3 | – | – | – | – | – | – | – | – | – | – | – | – | – | – | – | – | – | mutagenic call (Test System: AMES SALMONELLA TYPHIMURIUM, Strain/Indicator: TM677, Metabolic Activation: RAT, LIVER, S-9, AROCLOR 1254, Method: PREINCUBATION): inactive; negative |
| O=c1[nH]cnc2c1ncn2[C@H]1CC[C@@H](CO)O1 | – | inactive; negative | inactive; negative | – | inactive; negative | inactive; negative | inactive; negative | – | inactive; negative | inactive; negative | inactive; negative | – | inactive; negative | inactive; negative | inactive; negative | inactive; negative | inactive; negative | mutagenic call (Test System: AMES SALMONELLA TYPHIMURIUM, Strain/Indicator: TA98, Metabolic Activation: HAMSTER, LIVER, S-9, AROCLOR 1254, Method: STANDARD PLATE): inactive; negative; mutagenic call (Test System: AMES SALMONELLA TYPHIMURIUM, Strain/Indicator: TA100, Metabolic Activation: HAMSTER, LIVER, S-9, AROCLOR 1254, Method: STANDARD PLATE): inactive; negative; mutagenic call (Test System: HUMAN B LYMPHOBLASTOID CELLS, Strain/Indicator: TK6 CELL (HPRT)/6-THIOGUANINE, Metabolic Activation: NONE, Method: SUSPENSION/PLATE): active; positive; mutagenic call (Test System: HUMAN B LYMPHOBLASTOID CELLS, Strain/Indicator: TK6 CELL (TK+/-)/TRIFLUOROTHYMIDINE, Metabolic Activation: NONE, Method: SUSPENSION/PLATE): active; positive |
